Converted amounts (≈) assume the structure as drawn.
How the values were obtained:
[1] = target: T1, α5-GABAA receptor (Homo sapiens, UniProt P18507+P31644); assay: Whole cell patch clamp, inverse agonism efficacy on GABA-induced current in HEK-293 cells expressing α5-GABAA receptor; assay type: cell-based; conditions: HEK293; compound 100 nM, GABA 0.05 μM; ratio to reference compound Example 7 in CN106854207A in the same batch
T1 construct: expressed in transfected cells; host or cells: HEK-293 (monoclonal, stably transfected)
Method: The inventors used electrophysiological methods to determine the inverse agonist efficacy of the substances to be tested. The detailed procedures are as follows:
(1) Different subunits of GABAA receptors were expressed in human embryonic kidney cells 293 (HEK293). The cells were cultured in a culture medium and used as a cell model for screening potential analgesics. The α, β and γ subunits are necessary to form complete functional GABAA receptors. In this example, the inventors have established the following cell model: (a) α5 subunit (protein sequence is GenBank accession number: NM_000810.3), (33 subunit (protein sequence is GenBank accession number: NM_000814.5) and γ2 subunit (protein sequence is GenBank accession number: NM_000816.3) were expressed in HEK-293 cell line at the same time, followed by screening the monoclonal cell line. This cell line contained α5-GABAA receptor and had complete GABAA receptor function.
(2) The monoclonal stably transfected HEK-293 cells expressing α5-GABAA receptor were cultured in 10 cm culture dishes. The cells were passaged after reaching 80-90% confluence. During passaging, the culture medium was removed and discarded, 3 mL of DPBS (phosphate buffered saline, Gibco™) was added to the dishes, the dishes were shaken slightly, and DPBS was removed and discarded. 1 mL of trypsin (TrypLE Express, Gibco™) was added and the cells were digested at 37° C. for 1-2 minutes. Then 3 mL of complete medium (DMEM+10% FBS (Gibco™)) was added and the cells at the bottom of the culture dishes were dispersed. The cell suspension were transferred to a 15 mL centrifugal tube (Corning™) and then centrifuged at 200 g for 3 minutes. The supernatant was discarded, 4 mL of complete medium was added, and the cells were resuspended by gently blowing. The cell suspension was diluted by 1:5 or 1:10 for subculturing. The cell suspension was diluted by 1:12 for electrophysiology experiment, and added to a 24 well plate (Corning™) with a glass slide pre-treated with poly-D-lysine placed thereon; the experiment was initiated after the cells were adhered to the slide. The cells for electrophysiology experiment were maintained in culture for no more than 48 hours before use.
(3) Compound concentration: for screening, all compounds were diluted to a final concentration of 100 nM and the concentration of GABA was 0.05 μM. The compounds were at the concentration of 0.3 nM, 3 nM, 10 nM, 30 nM, 100 nM and 300 nM in dose-inverse agonism efficacy (%) experiment. The whole cell patch clamp technique was used in electrophysiology experiments, which can refer to the literature (I. Lecker, Y. Yin, D. S. Wang and B. A. Orser, (2013) Potentiation of GABAA receptor activity by volatile anaesthetics is reduced by α5-GABAA receptor-preferring inverse agonists, British Journal of Anaesthesia 110 (S1): i73-i81). The extracellular solution (ECS) contained: 150 mM NaCl, 5 mM KCl, 2.5 mM CaCl2, 1 mM MgCl2, 10 mM HEPES and 10 mM glucose (pH 7.4); Patch electrodes were filled with an intracellular solution containing: 140 mM CsCl, 11 mM EGTA, 10 mM HEPES, 2 mM CaCl2, 1 mM MgCl2, 4 mM MgATP, 2 mM TEA (pH 7.3). The currents were recorded by an EPC-10 amplifier and the PatchMaster software (HEKA). Patch electrodes with a resistance of 4-6 MΩ were pulled from borosilicate glass. The ALA-VC3-8PP™ system was used for extracellular administration. Separate cells that grew independently was selected for recording. During recording, the membrane voltage was clamped at −60 mV. During experiment, the cells were firstly perfused with ECS for 20 seconds. When the baseline reached to a stable state, the cells were then perfused with GABA solution. Then the current induced by GABA could be detected. After about 20 to 40 seconds, the current was stable. ECS was switched to compounds solution and the effects of the compounds were detected. At last, the perfusion solution was switched to ECS. […]

[2] = Kinetic solubility in 50 mM phosphate buffer pH 7.4; assay type: physicochemical; conditions: aqueous buffer, kinetic from dmso stock, 50 mM phosphate buffer pH 7.4, 2% DMSO, room temperature
Method: (§1) 50 mM phosphate buffer pH=7.4: 0.39 g of NaH2PO4.2H2O, and 1.4025 g of Na2HPO4 were weighted and placed in an erlenmeyer flask, 240 mL of water was added. The solid was dissolved and mixed thoroughly, the pH value was adjusted to 7.4 with 10M NaOH solution, and the resulting solution was transferred to a 250 mL volumetric flask, followed by adding water to the mark.
(§2) Waters e2695 HPLC high performance liquid chromatography, Mettler XSE105 analytical balance.
(§3) Firstly, a 10 mM stock solution with DMSO as the solvent was prepared, and was diluted with a diluent (ACN: PB buffer 50:50) into 1 μM-200 μM as standard solution.
Kinetic solubility. 30 μL of the stock solution was placed in a 2 mL centrifuge tube, 1470 μL of 50 mM phosphate buffer (pH 7.4) (containing DMSO at a final concentration of 2%) was added. The mixture was shaken at room temperature (1000 rpm/min) for 24 hours, and then filtered. The filtrate was tested by high performance liquid chromatography (UV).

[3] = Thermodynamic solubility in 50 mM phosphate buffer pH 7.4; assay type: physicochemical; conditions: aqueous buffer, thermodynamic from solid, 50 mM phosphate buffer pH 7.4, room temperature
Method: as §1, §2, §3
Thermodynamic solubility. About 1 mg of the sample was weighted, 1.5 mL of 50 mM phosphate buffer (pH 7.4) was added thereto, and the mixture was shaken at room temperature for 24 hours to ensure that the solution reached a state of saturation. The solution was then filtered, and the filtrate was tested with high-performance liquid chromatography (UV).

[4] = target: T2, α5-GABAA (Homo sapiens, UniProt P31644); conditions: cited from earlier work
T2 sequence (P31644 32-462): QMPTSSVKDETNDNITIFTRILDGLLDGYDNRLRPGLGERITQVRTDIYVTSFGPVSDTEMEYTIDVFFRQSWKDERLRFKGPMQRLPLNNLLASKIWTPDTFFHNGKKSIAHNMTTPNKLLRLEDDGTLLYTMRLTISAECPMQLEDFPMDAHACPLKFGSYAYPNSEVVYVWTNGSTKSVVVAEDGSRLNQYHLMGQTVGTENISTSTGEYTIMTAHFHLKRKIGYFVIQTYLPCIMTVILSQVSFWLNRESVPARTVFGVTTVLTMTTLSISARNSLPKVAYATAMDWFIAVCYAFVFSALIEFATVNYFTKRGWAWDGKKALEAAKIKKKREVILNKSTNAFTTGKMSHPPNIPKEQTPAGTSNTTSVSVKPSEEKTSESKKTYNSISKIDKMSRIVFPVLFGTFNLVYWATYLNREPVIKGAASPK

[5] = Pharmacokinetic experiment on rats, oral; assay type: in vivo; conditions: rat; male SD rats, po 1 mg/kg, 50% PEG400/50% water, plasma
Method: In the pharmacokinetic experiment on rats, the maximum drug concentration (Cmax) in the blood was determined to evaluate the absorption of the compounds in rats. All rats fasted overnight before administration; the test compounds were dissolved and administered orally (po, intragastric administration) to male SD rats, with 3 rats in each group. After administration of the test compounds, blood was collected by jugular vein puncture at […] with 0.25 mL per sample. The plasma drug concentration was determined by LC-MS/MS method, and the pharmacokinetic parameters were calculated by Phoenix WinNonlin7.0. The dose was 1 mg/kg, and the menstruum was 50% PEG400/50% water.

T1 sequence (P28472 26-473 partner, one chain of several): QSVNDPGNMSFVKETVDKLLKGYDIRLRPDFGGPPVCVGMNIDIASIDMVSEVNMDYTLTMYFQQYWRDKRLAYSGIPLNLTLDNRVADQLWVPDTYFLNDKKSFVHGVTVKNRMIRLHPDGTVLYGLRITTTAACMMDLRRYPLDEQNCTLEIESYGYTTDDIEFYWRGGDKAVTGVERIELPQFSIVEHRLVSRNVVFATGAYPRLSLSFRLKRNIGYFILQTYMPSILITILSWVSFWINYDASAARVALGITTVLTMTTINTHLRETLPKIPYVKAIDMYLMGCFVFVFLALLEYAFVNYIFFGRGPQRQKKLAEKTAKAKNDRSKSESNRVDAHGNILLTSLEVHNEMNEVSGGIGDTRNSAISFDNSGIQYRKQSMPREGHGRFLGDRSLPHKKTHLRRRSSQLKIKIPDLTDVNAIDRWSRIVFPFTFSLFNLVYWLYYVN
T1 sequence (P18507 40-467 isoform P18507-1 limits assumed, one chain of several): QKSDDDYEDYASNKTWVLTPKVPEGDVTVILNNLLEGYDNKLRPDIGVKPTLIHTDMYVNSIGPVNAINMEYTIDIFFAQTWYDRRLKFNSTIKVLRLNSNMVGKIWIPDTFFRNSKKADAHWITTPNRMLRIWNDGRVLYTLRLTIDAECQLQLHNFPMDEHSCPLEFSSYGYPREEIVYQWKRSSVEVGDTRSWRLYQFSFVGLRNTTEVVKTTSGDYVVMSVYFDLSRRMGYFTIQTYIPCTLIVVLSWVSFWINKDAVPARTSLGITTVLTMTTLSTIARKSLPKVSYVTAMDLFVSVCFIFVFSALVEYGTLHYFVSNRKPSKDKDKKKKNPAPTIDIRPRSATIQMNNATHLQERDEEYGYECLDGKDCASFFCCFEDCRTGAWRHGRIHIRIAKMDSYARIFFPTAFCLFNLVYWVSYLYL

SMILES | solubility kinetic at 24 h [2] | solubility thermodynamic at 24 h [3] | further results
CCNC(=O)c1ccc(COc2nn3c(-c4cc(COC)on4)nnc3c3ccccc23)nc1 [Compound 02, N-ethyl-6-[3-(5-methoxymethyl-isoxazol-3-yl)-[1,2,4]triazolo[3,4-a]phthalazin-6-yloxymethyl]-nicotinamide] | 8.02 µg/mL (≈ 17.5 µM) | 3.39 µg/mL (≈ 7.38 µM) | Emax at 0.1 µM [1]: 78%
COCc1cc(-c2nnc3c4ccccc4c(OCc4ccc(C(=O)NC(C)C)cn4)nn23)no1 [Compound 11, N-isopropyl-6-[3-(5-methoxymethyl-isoxazol-3-yl)-[1,2,4]triazolo[3,4-a]phthalazin-6-yloxymethyl]-nicotinamide] | 9.23 µg/mL (≈ 19.5 µM) | 4.4 µg/mL (≈ 9.29 µM) | Emax at 0.1 µM [1]: 106%
COCc1cc(-c2nnc3c4ccccc4c(OCc4ccc(C(=O)NC5CC5)cn4)nn23)no1 [Compound 12, N-cyclopropyl-6-[3-(5-methoxymethyl-isoxazol-3-yl)-[1,2,4]triazolo[3,4-a]phthalazin-6-yloxymethyl]-nicotinamide] | 10.9 µg/mL (≈ 23.1 µM) | 9.05 µg/mL (≈ 19.2 µM) | Emax at 0.1 µM [1]: 94%
COCc1cc(-c2nnc3c4ccccc4c(OCc4ccc(C(=O)NCC(F)(F)F)cn4)nn23)no1 [Compound 15, N-(2,2,2-trifluoroethyl)-6-((3-(5-methoxymethylisoxazol-3-yl)-[1,2,4]triazolo[3,4-a]phthalazin-6-oxy)methylene)nicotinamide] | 0.77 µg/mL (≈ 1.5 µM) | 0.84 µg/mL (≈ 1.64 µM) | 
COCc1cc(-c2nnc3c4ccccc4c(OCc4ccc(C(=O)NCC(F)F)cn4)nn23)no1 [Compound 24] | 1.39 µg/mL (≈ 2.81 µM) | 0.74 µg/mL (≈ 1.49 µM) | 
COCc1cc(-c2nnc3c4ccccc4c(OCc4ccc(C(=O)N5CCC(F)(F)CC5)cn4)nn23)no1 [Compound 34] | 4.6 µg/mL (≈ 8.59 µM) | 4.4 µg/mL (≈ 8.22 µM) | 
COCc1cc(-c2nnc3c4ccccc4c(OCc4ccc(C(=O)N(C)C)cn4)nn23)no1 [Compound 37] | 91.9 µg/mL (≈ 200 µM) | 84.7 µg/mL (≈ 184 µM) | Emax at 0.1 µM [1]: 72.1%
COCc1cc(-c2nnc3c4ccccc4c(OCc4ccc(C(=O)N5CCOCC5)cn4)nn23)no1 [Compound 38, {6-[3-(5-methoxymethyl-isoxazol-3-yl)-[1,2,4]triazolo[3,4-a]phthalazin-6-yloxymethyl]-pyridin-3-yl}-morpholin-4-methanone] | 17.8 µg/mL (≈ 35.4 µM) | 8.7 µg/mL (≈ 17.3 µM) | Emax at 0.1 µM [1]: 93.4%
COCc1cc(-c2nnc3c4ccccc4c(OCc4ccc(C(=O)N5CC(OC)C5)cn4)nn23)no1 [Compound 42] | 5.89 µg/mL (≈ 11.7 µM) | 6.02 µg/mL (≈ 12 µM) | Emax at 0.1 µM [1]: 73.3%
CCOC(=O)c1ncn2c1[C@@H]1CCCN1C(=O)c1cc(OC)ccc1-2 [L-655,708] |  |  | inhibition efficacy of the highest dose on the current induced by GABA ([4]; GABA concentration 1 μM): 15%; inhibition on the current induced by GABA ([4]; GABA concentration higher than 1 μM): no inhibition
CCNC(=O)c1ccc(COc2nn3c(-c4cc(C)on4)nnc3c3ccccc23)nc1 [drawing 164, reference compound] | 0.62 µg/mL (≈ 1.44 µM) | < 0.5 µg/mL | 
Cc1cc(-c2nnc3c4ccccc4c(OCc4ccc(C(=O)N5CCOCC5)cn4)nn23)no1 [drawing 171, reference compound] | 1.95 µg/mL (≈ 4.14 µM) | 1.7 µg/mL (≈ 3.61 µM) | 
CCNC(=O)c1ccc(COc2nn3c(-c4cc(COC)on4)nnc3c3ccccc23)nc1 [drawing 172] |  |  | Cmax [5]: 24.7 ng/mL
CCNC(=O)c1ccc(COc2nn3c(-c4cc(C)on4)nnc3c3ccccc23)nc1 [drawing 173, reference compound] |  |  | Cmax [5]: 19 ng/mL
COCc1cc(-c2nnc3c4ccccc4c(OCc4ccc(C(=O)N5CCOCC5)cn4)nn23)no1 [drawing 174] |  |  | Cmax [5]: 48 ng/mL
Cc1cc(-c2nnc3c4ccccc4c(OCc4ccc(C(=O)N5CCOCC5)cn4)nn23)no1 [drawing 175, reference compound] |  |  | Cmax [5]: 22.4 ng/mL
COCCNC(=O)c1ccc(COc2nn3c(-c4cc(C)on4)nnc3c3ccccc23)nc1 [reference compound] | 0.92 µg/mL (≈ 2 µM) | 1.5 µg/mL (≈ 3.26 µM) | 
Cc1cc(-c2nnc3c4ccccc4c(OCc4ccc(C(=O)NC(C)C)cn4)nn23)no1 [reference compound] | 2.2 µg/mL (≈ 4.96 µM) | 1.8 µg/mL (≈ 4.06 µM) | 
Cc1cc(-c2nnc3c4ccccc4c(OCc4ccc(C(=O)NC5CC5)cn4)nn23)no1 [reference compound] | 2.16 µg/mL (≈ 4.89 µM) | 0.82 µg/mL (≈ 1.86 µM) | 
Cc1cc(-c2nnc3c4ccccc4c(OCc4ccc(C(=O)NCC(F)F)cn4)nn23)no1 [reference compound] | < 0.46 µg/mL | < 0.46 µg/mL | 
Cc1cc(-c2nnc3c4ccccc4c(OCc4ccc(C(=O)N5CCC(F)(F)CC5)cn4)nn23)no1 [reference compound] | 0.97 µg/mL (≈ 1.92 µM) | 0.98 µg/mL (≈ 1.94 µM) | 

Reference: patent publication US11512089B2, “Substituted [1,2,4]triazolo[3,4-a]phthalazines as modulators of GABAA receptor activity” (SHANGHAI SIMR BIOTECHNOLOGY CO., LTD, priority 2018, dated 2022)
